Reference: patent publication US11364214B2, “Compositions and methods for treating eczema” (Dermala Inc., priority 2016, dated 2022)
In brackets after ≈: the same amount, converted by molar mass.

How the values were obtained:
S. aureus (ATCC 29213) [1] = assay: Minimal inhibitory concentration (MIC) assay, microbroth dilution (CLSI M100-S22); type: cell-based; settings: Staphylococcus aureus, ATCC29213; no esterase added; 10% DMSO; 16 hours at 37° C.; first well showing ≥90% reduction in growth; read-out: MIC against S. aureus
S. aureus (ATCC 29213) [2] = assay: Time-kill assay (bactericidal activity); type: cell-based
Procedure: This inoculum preparation was used for all experiments. Time-kill assay: A time-kill assay was performed to monitor the bactericidal activity of propionic acid (PA). […] Assays were performed in 100 μl volumes in 96-well plates and incubated at 37° C. in a sealed bag to prevent evaporation. […] Bacterial growth was determined by counting CFUs. […] The assay was setup and evaluated as described above.

S. aureus = settings: Shu et al. 2013; Wang et al. 2014; cited from earlier work

SMILES: CCC(=O)O [PA, propionic acid]
- MIC (S. aureus (ATCC 29213) [1]): 15 mM (≈ 1110 µg/mL)
- time after which bactericidal against S. aureus (S. aureus (ATCC 29213) [2]; 4× the MIC (MIC 15 mM), sampled at 0, 1, 7, 24 hours, FIG. 2): 7 h
- time after which S. aureus is completely killed (S. aureus (ATCC 29213) [2]; 4× the determined MIC, 0.2 mg/ml porcine liver esterase, sampled at 0, 1, 5, 24 hours, FIG. 4): 5 h
- growth of S. aureus (literature) (S. aureus): inhibit growth of S. aureus
